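Five concentrations, 48 hours, 96-well plates. At the GI50, growth is halved. TGI marks complete inhibition of growth.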
Tests used:
Assay in all cases: NCI-60 cell line screen, 48 h
[1] = test system: SF-268 CNS
[2] = test system: HCT-116 colon
[3] = test system: 786-0 renal
[4] = test system: A498 renal
[5] = test system: HT29 colon
[6] = test system: K-562 leukemia
[7] = test system: OVCAR-4 ovarian
[8] = test system: U251 CNS
[9] = test system: IGROV1 ovarian
[10] = test system: RPMI-8226 leukemia
[11] = test system: SK-OV-3 ovarian

Row | Structure (SMILES) | TGI [1] | TGI [2] | TGI [3] | TGI [4] | TGI [5] | TGI [6] | TGI [7] | TGI [8] | TGI [9] | TGI [10] | TGI [11] | GI50 [1] | GI50 [11] | GI50 [2] | GI50 [4] | GI50 [6] | GI50 [7] | GI50 [8] | GI50 [10]
1 | CC1=NN(c2cccc(Cl)c2)C2(SCC(=O)N2c2nc3ccccc3s2)/C1=C\c1cccs1 (configuration not stated) | 44 µM | 52.1 µM | 41.1 µM | 59 µM | 46.6 µM | 26.4 µM | 66 µM | 41.6 µM | > 100 µM | 38.7 µM |  |  |  |  |  |  |  |  | 
2 | CCn1c(-c2ccc(N=NNc3ccc(-c4n[nH]c(=S)n4CC)cc3)cc2)n[nH]c1=S | 17.2 µM | > 100 µM | 37.2 µM | > 100 µM | > 100 µM | > 100 µM | 5.41 µM |  |  | 5.64 µM | 19.5 µM |  |  |  |  |  |  |  | 
3 | O=C(O)C1C2CCC(O2)C1C(=O)Nc1cccc2cccnc12 (configuration not stated) |  | > 100 µM | > 100 µM | > 100 µM | > 100 µM | > 100 µM | > 100 µM | > 100 µM | > 100 µM | > 100 µM | > 100 µM |  |  |  |  |  |  |  | 
4 | NCCCCc1cc(O)c2c(c1O)C(=O)c1ccccc1C2=O | 29.9 µM | 18.1 µM | 19.6 µM | 37.2 µM | 16.7 µM | 17.3 µM | 35 µM | > 43 µM | 22.2 µM | 29.2 µM | 29.1 µM |  |  |  |  |  |  |  | 
5 | CC1=CC(=O)c2ccccc2C1=O | 22.2 µM | 5.33 µM | 28.5 µM | 39.1 µM | 34.1 µM |  | 9.54 µM | 26.4 µM | 29.2 µM | 5.39 µM | 25.7 µM |  |  |  |  |  |  |  | 
6 | COc1cc2c(ccc3c4cc(OC)c(OC)cc4c[n+](C)c23)cc1O | 6.09 µM | > 60.3 µM |  | 65.8 µM | > 75 µM | > 75 µM | > 65.8 µM | 2.94 µM | > 75 µM | > 75 µM | > 72.2 µM |  |  |  |  |  |  |  | 
7 | O=C(OCN1C(=O)C2C3C=CC(C2C1=O)C1C2C(=O)N(COC(=O)C4CCCN4)C(=O)C2C31)C1CCCN1 (configuration not stated) | > 78.5 µM | > 53.7 µM | > 60.6 µM | > 100 µM | > 100 µM | > 100 µM | > 100 µM | > 67.5 µM | > 100 µM | 54.1 µM | > 100 µM |  |  |  |  |  |  |  | 
8 | C[C@H](CCC(=O)O)[C@H]1CC[C@@]2(C)[C@@H]3C(=O)C[C@H]4C(C)(C)[C@@H](O)CC[C@]4(C)[C@H]3C(=O)C[C@]12C | > 100 µM | > 100 µM | > 100 µM | > 100 µM | > 100 µM | > 100 µM | > 100 µM | > 100 µM | > 100 µM | > 100 µM | > 100 µM |  |  |  |  |  |  |  | 
9 | CCN(CC(=O)O)C(=O)c1cccnc1 | > 100 µM | > 100 µM | > 100 µM | > 100 µM | > 100 µM | > 100 µM | > 100 µM | > 100 µM | > 100 µM |  |  |  |  |  |  |  |  |  | 
10 | Fc1ccc(C(OCCN2CCC3CCC(C2)N3C/C=C/c2ccco2)c2ccc(F)cc2)cc1 (configuration not stated) | 25.9 µM | 18.5 µM | 22.2 µM | 23.3 µM |  | 20.7 µM | 25.2 µM | 21.1 µM | 21 µM | 17.3 µM | 30.3 µM |  |  |  |  |  |  |  | 
11 | O=c1[nH]nc(NNc2ccccc2)c2nnn(C3CCCCC3)c12 |  | > 100 µM |  |  | > 100 µM | > 100 µM | > 100 µM | > 100 µM |  | > 100 µM |  |  |  |  |  |  |  |  | 
12 | CCCNC(=O)CCC(C)C1CCC2C3C(C[C@H](OC(C)=O)[C@]12C)[C@@]1(C)CCC2(C[C@H]1C[C@H]3OC(C)=O)OOC1(CC[C@]3(C)C4C[C@H](OC(C)=O)[C@]5(C)C(C(C)CCC(=O)NCCC)CCC5C4[C@H](OC(C)=O)C[C@@H]3C1)OO2 (some centres not stated) | > 100 µM | > 100 µM | > 100 µM | > 100 µM | > 100 µM | > 100 µM | > 100 µM | > 100 µM | > 100 µM | > 100 µM | > 100 µM |  |  |  |  |  |  |  | 
13 | COc1ccc(C(=O)/C=C/c2cccc([N+](=O)[O-])c2)c(OC)c1 | > 50 µM | 1.68 µM |  | > 50 µM |  | 3.08 µM | > 50 µM | 1.72 µM |  | 3.14 µM | > 50 µM | 1.62 µM | 18.9 µM | 0.767 µM | 11.1 µM | 0.999 µM | 2.11 µM | 0.881 µM | 1.09 µM
14 | Cc1nn(-c2ccccc2)c(C)c1/C=N/N=C1\SCC(=O)N1c1ccccc1 | > 100 µM | 36.5 µM | 37.7 µM | 78.3 µM | 73.9 µM | > 100 µM | 41.7 µM | 69.3 µM | 93.9 µM | 35.3 µM | 83 µM |  |  |  |  |  |  |  | 
15 | Clc1cc2c(cc1Cl)CC(NCCN1CCCC1)CC2 (configuration not stated) | 29.7 µM | 26.3 µM | 26.3 µM | 27.4 µM | 18.1 µM | 48.9 µM | 35.9 µM | 31.1 µM | 29 µM | 38.1 µM | 34.9 µM |  |  |  |  |  |  |  | 
16 | C(=N\NC1=NCCN1)/c1ccc(-c2cn3cc(/C=N/NC4=NCCN4)ccc3n2)cc1 | > 66.1 µM | > 62.4 µM | > 66.4 µM | > 100 µM | > 67.7 µM | 42.5 µM | > 100 µM | > 64.9 µM | > 64.5 µM | > 100 µM | > 100 µM |  |  |  |  |  |  |  | 
17 | O=C(/C=C/c1ccccc1)NNC(=O)c1c(Cl)c(Cl)c(Cl)c(Cl)c1-c1nc2ccccc2[nH]1 | > 100 µM | 53.6 µM | 73.8 µM | 90.9 µM | > 100 µM | > 100 µM | > 100 µM |  | 45.6 µM | 83.2 µM | 54.9 µM |  |  |  |  |  |  |  | 

— PubChem BioAssay (NCI)
